# Measured values published in patent publication US20230365959A1, “METHOD FOR IMPROVING THE STABILITY OF A COMPOSITION COMPRISING A FLAVIN-DEPENDENT LACTATE DEHYDROGENASE” (KIKKOMAN CORPORATION, priority 2020, published 2023).
# Assays:
# Assay type in all cases: biochemical
# [1] = system: lactate dehydrogenase from Pichia kudriavzevii (PkLDH); assay: Thermal stability of PkLDH (residual activity ratio after heat treatment, potassium phosphate buffer); conditions: PkLDH 2 U/mL
# Description: Thermal stability of LDH can be evaluated by heating LDH at a given temperature for a given time and comparing the activity thereof before and after heating. […] The LDH activity of an LDH solution which is allowed to stand still on ice without heating is taken as 100 and the LDH activity after heating is calculated and, the residual activity ratio (ratio of remaining activity) (%) can be determined.
# More specifically, the residual activity ratio (%) can be obtained by measuring LDH activity value (a) of a solution before heat treatment or before long-term storage and LDH activity value (b) of a solution after heat treatment or after long-term storage and calculating ((b)/(a)×100).
# Using the purified PkLDH preparation obtained above, the residual activity ratio (%) in the presence and absence of an LDH stabilizer were compared in accordance with the LDH thermal stability evaluation method mentioned previously, and in this manner, a stabilizer was searched.
# (§1) The thermal stability of LDH was evaluated by heating LDH at a given temperature for a given time and comparing the activities before and after heating. […] Further, LDH activity of an LDH solution allowed to stand still on ice without any heat treatment was measured. Based on the activity of this case without any heat treatment taken as 100, the activities of LDH solutions after heat treatment were calculated to determine the residual activity ratio (%). More specifically, the residual activity ratio (%) can be obtained by measuring LDH activity value (a) of a solution before heat treatment or before long-term storage, and LDH activity value (b) of a solution after heat treatment or after long-term storage, and then, calculating ((b)/(a)×100).
# The degree of LDH stability improving effect of each of the various added compounds was evaluated by preparing an LDH solution by allowing LDH to coexist with each of the various compounds, subjecting the solution to a heat treatment and determining the residual activity ratio (%) of the solution, and evaluating the residual activity (%) by mutually comparing the cases between compounds or comparing the case to a case where no compound was added.
# (§2) The activity of LDH was determined in accordance with the following procedure. […] Subsequently, a 30 mM PMS solution (50 μL) and an enzyme sample solution (50 μL) were added to the mixture to initiate a reaction. Absorbance at 520 nm was measured at the time of initiation of the reaction and over time and, the degree of reduction (ΔA520) in absorbance per minute as the enzymatic reaction progresses was obtained and LDH activity was calculated in accordance with the following Mathematical formula 2. Here, LDH activity is expressed by an enzyme (LDH) unit, and 1U is defined as the amount of the enzyme that can reduce 1 μmol DCIP per minute at 37° C. in the presence of 10 mM L-lactate.
# The pH of the PkLDH solution was adjusted to be 7.5 after each of the compounds was added. Heat treatment was carried out at 55° C. for 15 minutes. As a comparative example, an LDH solution prepared without adding any compound was subjected to the same experiment. It should be noted that, unless specified otherwise, the reagents used herein were all purchased from Tokyo Chemical Industry Co., Ltd. […]
# [2] = molecular target: T1, lactate dehydrogenase from Saccharomyces cereviciae (ScLDH) (Saccharomyces cerevisiae, UniProt P00175); assay: Thermal stability of ScLDH (supernatant of crushed bacterial cells); conditions: ScLDH 2 U/mL; compound 300 mM; potassium phosphate buffer pH 7.5; 40°C for 15 minutes
# T1 construct: made in house; host or cells: Escherichia coli BL21 (pKK223-3-ScLDH); unpurified supernatant of crushed cells
# T1 sequence (P00175 86-591): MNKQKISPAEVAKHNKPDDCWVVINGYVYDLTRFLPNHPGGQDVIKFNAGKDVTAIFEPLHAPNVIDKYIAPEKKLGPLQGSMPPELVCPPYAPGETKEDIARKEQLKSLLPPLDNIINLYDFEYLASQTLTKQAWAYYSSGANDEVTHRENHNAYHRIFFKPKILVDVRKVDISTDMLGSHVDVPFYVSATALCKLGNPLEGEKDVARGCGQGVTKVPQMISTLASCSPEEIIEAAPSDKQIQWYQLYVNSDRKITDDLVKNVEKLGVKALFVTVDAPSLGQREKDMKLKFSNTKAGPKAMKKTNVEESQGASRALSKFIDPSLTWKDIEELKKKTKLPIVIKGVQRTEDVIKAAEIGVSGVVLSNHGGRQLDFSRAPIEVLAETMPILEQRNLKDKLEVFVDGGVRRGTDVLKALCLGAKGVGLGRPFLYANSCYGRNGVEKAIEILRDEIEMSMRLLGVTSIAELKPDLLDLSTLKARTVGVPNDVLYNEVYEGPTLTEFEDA
# Description: as §1, §2
# Using the supernatant of a solution comprising crushed ScLDH bacterial cells obtained above, the ratios of remaining activities (%) in the presence and absence of a LDH stabilizer were compared in accordance with the LDH thermal stability evaluation method described in Section 4. In this manner, a stabilizer was searched.
# The pH of the LDH solution was adjusted to be 7.5 after each of the compounds was added. Heat treatment was carried out at 40° C. for 15 minutes.
# [3] = system: lactate dehydrogenase from Pichia kudriavzevii (PkLDH); assay: Thermal stability of PkLDH in 150 mM HEPES buffer; conditions: PkLDH 2 U/mL; 150 mM HEPES buffer pH 7.5; added compound 300 mM; 55°C for 15 minutes
# Description: as §1
# as §2, with “Here, LDH activity is expressed by an enzyme (LDH) unit, and 1U is defined as the amount of the enzyme that can reduce 1 μmol DCIP per minute at 37° C. in the presence of 10 mM L-lactate.” left out
# [4] = system: lactate dehydrogenase from Candida inconspicua (CaLDH); assay: Thermal stability of CaLDH (residual activity ratio after heat treatment); conditions: CaLDH 2 U/mL, potassium phosphate buffer pH 7.5, 50°C for 15 minutes; for improvement effect on the stability of LDH: compound 300 mM
# Description: as §1, §2
# Stability evaluation tests were conducted to check the improvement effect of malic acid on the stability of various LDHs. […] Each of these diluted enzyme solutions (a mixture of an enzyme and L-malic acid, LDH concentration: 2 U/mL, L-malic acid concentration: 300 mM) was heated in accordance with the thermal-stability evaluation method described in Section 4. More specifically, PkLDH was treated at 55° C., whereas, CaLDH and OgLDH were treated at 50° C. for 15 minutes and then the residual activity ratio (%) was calculated, based on the activity before heating taken as 100. […]
# [5] = system: lactate dehydrogenase from Ogataea parapolymorpha (OgLDH); assay: Thermal stability of OgLDH (residual activity ratio after heat treatment); conditions: OgLDH 2 U/mL, potassium phosphate buffer pH 7.5, 50°C for 15 minutes; for LDH stability improving effect: compound 300 mM
# Description: as §1, §2
# Stability evaluation tests were conducted to check the improvement effect of malic acid on the stability of various LDHs. […] Each of these diluted enzyme solutions (a mixture of an enzyme and L-malic acid, LDH concentration: 2 U/mL, L-malic acid concentration: 300 mM) was heated in accordance with the thermal-stability evaluation method described in Section 4. More specifically, PkLDH was treated at 55° C., whereas, CaLDH and OgLDH were treated at 50° C. for 15 minutes and then the residual activity ratio (%) was calculated, based on the activity before heating taken as 100. As a comparative example, a sample without adding any L-malic acid in the enzyme diluent was subjected to the same experiment, and the ratio of residual activity in both cases were compared.
# Using the purified OgLDH preparation obtained above, the ratios of remaining activities (%) in the presence and absence of a LDH stabilizer were compared in accordance with the LDH thermal stability evaluation method described in Section 4. In this manner, a stabilizer was searched.
# The pH of the LDH solution was adjusted to be 7.5 after each of the compounds was added. Heat treatment was carried out at 50° C. for 15 minutes.
# [6] = system: lactate dehydrogenase from Pichia kudriavzevii (PkLDH); assay: Chronoamperometry with printed electrode to which PkLDH plus stabilizer was applied and dried (5 mM mPMS/PBS); conditions: added compound 50 mM, +200 mV
# Description: An enzyme electrode was prepared using the purified PkLDH preparation obtained above and chronoamperometry was carried out. Each of the compounds was added to an enzyme solution in advance and tested whether or not a stabilizing effect of the enzyme during a drying step was exerted. LDH (1 U) solutions comprising compounds in a concentration (0.2% (w/v), 2% (w/v) and 50 mM, respectively) as described in Table 8 were each applied to a screen-printed carbon electrode C110 (manufactured by Metrohm-Dropsens) in an amount of 4 μL and dried at 40° C. for 60 minutes. The same procedure was repeated using an LDH solution without adding any one of the compounds. Each of the electrodes prepared was connected to ALS electrochemical analyzer 814D (manufactured by BAS) using a dedicated connector (DRP-CAC, manufactured by Drop Sense). Subsequently, 100 μL of a 2 mM mPMS/PBS solution was added dropwise to dissolve the dried LDH. The applied voltage was +200 mV (vs Ag/Ag+). An L-sodium lactate solution was added and a response current value 5 seconds after initiation of measurement was recorded. […] Further, in the same manner as above, a 1 U LDH solution comprising 1% polyacrylic acid was applied to a screen printed carbon electrode and dried and then a 2 mM mPMS/PBS solution (100 μL) was added dropwise to dissolve the dried LDH. Then, an L-sodium lactate solution was added such that the final concentration thereof would be 2 to 10 mM, and a response current value 5 seconds after initiation of measurement was recorded.
# Chronoamperometry was carried out by changing the concentration of the compound to be added as a stabilizer and the concentration of L-sodium lactate used as a substrate. To an electrode prepared in the same manner as in the preceding Section, 100 μL of a 5 mM mPMS/PBS solution was added dropwise to dissolve the dried LDH. A voltage of +200 mV (vs Ag/Ag+) was applied. An L-sodium lactate solution was added and a response current value 5 seconds after initiation of measurement was recorded.
# [7] = added compound 300 mM, 150 mM potassium phosphate buffer pH 7.5, 0.15% BSA, 55°C for 15 minutes
compound,measurement,setting,value
"O=C(O)C(O)Cc1ccccc1 (racemic) [DL-phenyllactic acid, DL-3-phenyllactic acid]",Residual activity ratio (%),[1]; [7],87%
O=C(O)C[C@H](O)C(=O)O [L-malic acid],Residual activity ratio (%),[1]; [7],80%
same,Residual activity ratio (%),"[1]; final concentration of malic acid 10 mM, 55°C for 15 min",36%
same,Residual activity ratio (%),"[1]; final concentration of malic acid 30 mM, 55°C for 15 min",44%
same,Residual activity ratio (%),"[1]; final concentration of malic acid 100 mM, 55°C for 15 min",52%
same,Residual activity ratio (%),"[1]; final concentration of malic acid 500 mM, 55°C for 15 min",90%
same,stability improving effect on ScLDH,[2],41%
same,Residual activity ratio (%),[3],100%
same,Residual activity ratio (%) CaLDH,[4]; added compound 300 mM,45%
same,Residual activity ratio (%) OgLDH,[5]; added compound 300 mM,88%
"OC[C@H]1O[C@@](CO)(O[C@H]2O[C@H](CO)[C@@H](O)[C@H](O)[C@H]2O)[C@@H](O)[C@@H]1O [Sucrose, sucrose]",Residual activity ratio (%),[1]; [7],42%
OC[C@H]1O[C@H](O[C@H]2[C@H](O)[C@@H](O)C(O)O[C@@H]2CO)[C@H](O)[C@@H](O)[C@@H]1O (mixture of isomers) [maltose monohydrate],improvement effect on the stability of LDH,[4],5%
"O=C(O)/C=C/C(=O)O [Fumaric acid, fumaric acid]",Residual activity ratio (%),[1]; [7],41%
"O=C([O-])CC(O)(CC(=O)[O-])C(=O)[O-].[Na+].[Na+].[Na+] [Sodium citrate, sodium citrate]",Residual activity ratio (%),[1]; [7],42%
NCC(=O)O [glycine],LDH stability improving effect,[5],11%
O=C(O)C[C@@H](O)C(=O)O [D-malic acid],Residual activity ratio (%),[1]; [7],47%
"N.N.O=S(=O)(O)O [Ammonium sulfate, ammonium sulfate]",Residual activity ratio (%),[1]; [7],54%
same,stability improving effect on ScLDH,[2],24%
DL-leucine acid,Residual activity ratio (%),[1]; [7],92%
"O=C(O)/C=C\C(=O)O [Maleic acid, maleic acid]",Residual activity ratio (%),[1]; [7],45%
"OC[C@H]1O[C@H](O[C@H]2O[C@H](CO)[C@@H](O)[C@H](O)[C@H]2O)[C@H](O)[C@@H](O)[C@@H]1O [Trehalose dihydrate, trehalose dihydrate]",Residual activity ratio (%),[1]; [7],41%
Cl.NCCCC[C@H](N)C(=O)O [L-lysine hydrochloride],LDH stability improving effect,[5],66%
"O=S(=O)([O-])[O-].[Na+].[Na+] [Sodium sulfate, sodium sulfate]",Residual activity ratio (%),[1]; [7],50%
"O=C(O)CC(=O)C(=O)O [Oxaloacetic acid, oxaloacetic acid]",Residual activity ratio (%),[1]; [7],45%
"N[C@@H](CC(=O)O)C(=O)[O-].[Na+] [Sodium aspartate, L-sodium aspartate]",Residual activity ratio (%),[1]; [7],64%
O[C@H]1[C@H](O)[C@@H](O)[C@H](O)[C@@H](O)[C@H]1O [myo-inositol],"Current value 5 second later (μA), 0 mM lactate",[6],0.23 μA
same,"Current value 5 second later (μA), 5 mM lactate",[6],104.4 μA
"O=C([O-])[C@H](O)[C@@H](O)[C@H](O)[C@H](O)CO.[Na+] [Sodium gluconate, sodium gluconate]",Residual activity ratio (%),[1]; [7],57%
"O=C(O)CCC(=O)O [Succinic acid, succinic acid]",Residual activity ratio (%),[1]; [7],54%
O=C(O)CN(CCN(CC(=O)O)CC(=O)O)CC(=O)O [ethylenediaminetetraacetic acid],improvement effect on the stability of LDH,[4],56%
O=C([O-])CC(O)C(=O)[O-].[Na+].[Na+] [L-sodium malate],"Current value 5 second later (μA), 0 mM lactate",[6],0.43 μA
same,"Current value 5 second later (μA), 5 mM lactate",[6],94.4 μA
N[C@@H](Cc1c[nH]cn1)C(=O)O [L-histidine],LDH stability improving effect,[5],27%
